Experimental data published in patent US20230014352A1, “INHALED STATINS AS BRONCHODILATORS TO IMPROVE LUNG FUNCTION IN RESPIRATORY DISEASES” (priority 2019, published 2023).
“Also recorded” adds a separate entry of the source.

Experiments:
[1] = tested on: primary human airway smooth muscle (ASM) cells; assay: Contractile force screening (CFS), basal ASM cell contraction (strain energy); assay type: cell-based; conditions: for strain energy (ASM contraction): compared to pravastatin; for basal ASM cell contraction: FIG. 1A/1D; for reversibility of force inhibitory effect: media without Pit after treatment, FIG. 10D
Procedure: Primary human airway smooth muscle (ASM) cells derived from both non-asthmatic and asthmatic donors were obtained from the Gift of Hope Organ and Tissue Donor Network. These cells have been well-characterized previously (see for example H. Yoshie et al., Biophys J (2018) 114(9):2194-99). All measurements were performed using cells at passage 5-8 from three non-asthmatic donors. Cells were grown on either 10% serum-containing F12 complete media, or serum-deprived media supplemented with insulin, transferrin, and selenium (Corning, Tewksbury, Mass.). Contractile Force Screening: Human ASM cells were grown to confluence in 96-well plates on custom NuSilTM 8100 elastic substrates (Avantor, Inc., Radnor, Pa.) (R. […] Fluorescent beads (diameter 400 nm) were embedded in the substrate surface to enable traction force calculations based on their displacements. To measure fractions, an inverted epi-fluorescence microscope (DMI 6000B, Leica Inc., Germany) equipped with a heated chamber (37° C.), a monochrome camera ([…]), and a motorized stage was used. Spatial images were recorded of substrate-embedded fluorescent beads at 10× magnification. Based on the bead displacements (resolution 15 μm) relative to a cell-free model, together with knowledge of substrate stiffness and thickness, fractions were computed using the approach of Fourier Transform Traction Cytometry ([…] et al., Pharmacol Ther (2014) 143(1):87-110), modified to the case of cell monolayers ([…] et al., Cell (2007) 129(3):511-22). From each fraction map, the root-mean-squared traction (RMST) value and strain energy were calculated and reported as a measure of normal contraction in the monolayer. On a well-by-well basis, the ratio of the strain energy after vs. before treatment was computed, and all values of a given treatment group were normalized to the mean of each treatment group. Comparison of Statins: […] MA is the immediate product of HMGCR action on HMB-CoA, so addition of MA would reverse the effect of statin inhibition of HMGCR. […] Simvastatin-acid (SA), atorvastatin, pravastatin, and pitavastatin were examined with CFS to determine the dose response of the ASM relaxation effect. […] From each ASM force map, the strain energy (i.e., the energy that is imparted to the substrate by the contractile cells, in pJ) was computed, to represent the average cellular contraction.

ASM cells [2] = assay: RealTime-Glo Annexin V Apoptosis and Necrosis assay; assay type: cell-based, human
Procedure: Lack of apoptosis: Some studies have shown that statins at high enough doses can reduce the viability of vascular smooth muscle cells, epithelial cells, and endothelial cells (S. Ghavami et al., Biochim Biophys Acta (2014) 1843(7):1259-71; T. P. Miettinen et al., Cell Rep (2015) 13(11):2610-20).
RealTime-Glo™ Annexin V Apoptosis and Necrosis assay was performed by growing ASM cells on 96-well white cell culture plate according to the manufacturer's instructions (Promega Inc). […] In this real-time annexin V binding assay, the luminescence signal was detected for apoptosis and necrosis was detected with a fluorescence signal by using a SpectraMax® plate reader. […] (20 μg/mL) was used as a positive control (FIG. 2).

[3] = tested on: bronchial airways of human PCLS; assay: Histamine-induced airway constriction in human PCLS; conditions: pre-treated 24 hrs, compared to vehicle, FIG. 11C
Description: A non-transplantable non-asthmatic human donor lung was obtained through the Gift of Hope/Regional Organ Bank of Illinois, and sliced as per published protocols. Briefly, the lung lobe was filled with 1.5% low melting temperature agarose (Type IX; Sigma, St. Louis, Mo.) in Hanks balanced salt solution (pH=7.4; Invitrogen, Carlsbad, Calif.), and sliced using a VT1200S vibrating blade microtome (Leica Microsystems, Bannockburn, Ill.) to create 250 μm thick slices. Slices were cryopreserved till the day of the experiment.
Slices were treated with pitavastatin (2 μM) for 24 hrs, before challenge with histamine (1 μM). Airway constriction was measured as luminal area changes in response to increasing doses of histamine. In both sets of PCLS samples, airway lumen area was quantified from bright field images using the Fiji image analysis software.

ASM cells [4] = assay: Simulated deep breath (stretch-unstretch), cell mapping rheometry and CFS; assay type: cell-based, human; conditions: 1 μM, 24 hrs; for force recovery after single stretch-unstretch maneuver (stretch-induced ASM force relaxation): 10% magnitude, 4-sec stretch, recovery over 180 seconds, FIG. 12B
Procedure: Well-defined biaxial stretch (4 sec duration, 10% magnitude) was imposed using the method of cell mapping rheometry. The strain energy from each ASM force map was computed as a metric of average cellular contraction, and reported as fold changes to the pre-stretch baseline value.
Normal ASM was treated with pitavastatin (1 μM, 24 hrs, n=7), isoproterenol (10 μM, 30 min, n=6) or vehicle (n=7), and examined by CFS as described above. […] Shown are contraction values normalized to the untreated control group. […] The contraction force gradually recovered over 180 seconds. […] All data are reported as mean and standard error of the mean (SEM).

ROCK-2 = assay: Total ROCK-2 expression, western blot; assay type: cell-based, human; conditions: 1 μM, 24 hrs, FIG. 15C
Procedure: Non-asthmatic primary human ASM cells were treated with either vehicle or pitavastatin (1 μM) for 24 hours. Cells were then immuno-stained for F-actin expression. […] Cell lysates were analyzed by western blot for total ROCK-1, total ROCK-2, total MLC-2, and phosphorylated MLC-2. As shown in FIGS. 15C and 15D, pitavastatin reduced the total expression of ROCK-1, ROCK-2, and MLC-2 (total and phosphorylated).

eotaxin-3 = assay: IL13/TNFα-induced eotaxin-3 peptide secretion by ASM cells; assay type: cell-based, human; conditions: 2 mM pitavastatin, 72 hrs; cytokines 18 hrs at 10 ng/mL; 10% FBS; FIG. 14A
Procedure: Non-asthmatic primary human ASM cells were grown to confluence and were either untreated or pre-treated with 2 mM pitavastatin and GGPP (10 mM) for a total of 72 hours. Total cytokine stimulation was for 18 hours at 10 ng/mL. […] All experiments were conducted under serum-containing media conditions (10% FBS).

[5] = tested on: primary human airway smooth muscle (ASM) cells; assay: Contractile force screening (CFS), basal ASM cell contraction (strain energy); assay type: cell-based; conditions: donors D1-D6, FIG. 11A
[6] = 1 μM, serum-deprived media, FIG. 10B

SMILES: O=C(O)C[C@H](O)C[C@H](O)/C=C/c1c(C2CC2)nc2ccccc2c1-c1ccc(F)cc1 [pitavastatin]
- inhibitory potency on ASM contraction, dose-response ranking ([1]; 0-10 μM, FIG. 1C, 1D): most significant effect
- strain energy (ASM contraction) ([1]; 0.4 μM, 24 hours, FIG. 1C): significant reduction in strain energy
- basal ASM cell contraction ([1]; 1 μM, 24 hours): potently and significantly inhibits basal ASM contraction
- basal ASM cell contraction ([1]; 1 μM, 24 hours, listed as Pitavastatin): more potent
- relaxation effect at 24 hrs compared to simvastatin [1, 6]: more significant at 24 hrs
- relaxation effect at 24 hrs compared to simvastatin ([1]; 1 μM, serum-deprived media, FIG. 10B, listed as Pit): significantly more efficacious than Sim
- ASM relaxation over time compared to simvastatin ([1]; 1 μM, all time points including 24 hours, with or without media starvation, FIG. 4C): greater ASM relaxation than simvastatin
- reversibility of force inhibitory effect ([1]; 1 μM): reversible
- reversibility of force inhibitory effect ([1]; 1 μM, listed as Pit): reversed
- ASM contraction over time compared to control [1, 6]: reduced ASM contraction time-dependently
- strain energy (ASM contraction) ([1]; 2 and 10 μM, 24 hours, FIG. 1C): significantly (and further) reduce strain energy
- ASM contraction / ASM cell relaxation ([1]; FIG. 10A): inhibited ASM contraction
- dose-dependent effect on ASM ([1]; primary ASM cells from three different human donors, FIG. 3): dose-dependently relax ASM
- potency on basal ASM contraction relative to simvastatin ([1]; same dose, 1 μM, 24 hours, FIG. 1D): more potent than simvastatin
- start of ASM relaxing effects ([1]; time-dependent effects, FIG. 4C): 4 h
- apoptosis and necrosis (cell death) (ASM cells [2]): no evidence of apoptosis or cell death
- cellular toxicity (ASM cells [2]): did not demonstrate any
- 1 μM histamine-induced airway constriction (lumen narrowing) [3]: significantly inhibited
- 1 μM histamine-induced airway constriction (lumen narrowing) ([3]; listed as Pit): significantly reduced
- basal ASM contraction compared to untreated controls (ASM cells [4]; FIG. 12A): significantly inhibited basal ASM contraction
- force recovery after single stretch-unstretch maneuver (stretch-induced ASM force relaxation) (ASM cells [4]): significantly inhibited
- force recovery after single stretch-unstretch maneuver (stretch-induced ASM force relaxation) (ASM cells [4]; listed as Pitavastatin): augmented stretch-induced ASM force relaxation
- total (basal) expression of ROCK-2 (ROCK-2): reduced
- IL13/TNFα-induced eotaxin-3 peptide secretion (eotaxin-3): inhibited
- ASM contraction in asthmatic and non-asthmatic donor cells [5]: dose-dependently inhibited ASM contraction; also recorded: inhibited ASM contraction dose-dependently
